Measurements reported in patent US20260231941A1, “HERBICIDAL COMPOSITIONS” (SYNGENTA CROP PROTECTION AG, priority 2023, published 2026).

What was measured:
Assay in all cases: Post-emergence efficacy, glasshouse, percentage damage to plant
Assay type in all cases: in vivo
[1] = system: Echinochloa crus-galli (ECHCG); settings: growth stage 4 true leaves, 14 days
Description: (§1) Seeds of a variety of test species are sown in standard soil in pots (Digitaria sanguinalis (DIGSA), Echinochloa crus-galli (ECHCG), Setaria faberi (SETFA), Stellaria media (STEME), Amaranthus retroflexus (AMARE), Chenopodium album (CHEAL), Abutilon theophrasti (ABUTH), Ipomoea hederacea (IPOHE), Phalaris minor (PHAMI), Eleusine indica (ELEIN), Sorghum bicolor (SORVU), Euphorbia heterophylla (EPHHL), Fallopia convolvulus (POLCO)), and cultivated under controlled conditions in a glasshouse (at 24/16° C., day/night; 14 hours light; 65% humidity), the plants are sprayed with an aqueous spray solution derived from the dissolution of Component (A) in acetone and IF50 (11.12% Emulsogen EL360 TM+44.44% N-methylpyrrolidone+44.44% Dowanol DPM glycol ether) and Component (B) which was then diluted to the required concentration using 0.2% Genapol XO80 (CAS No. 9043-30-5) in water as the diluent. Test compounds or compositions are applied at the rates stated. The test plants are then grown in a glasshouse under controlled conditions in a glasshouse (at […], day/night; 14 hours light; 65% humidity) and watered twice daily. After 14 days, the test is evaluated for the percentage damage caused to the plant (100=total damage to plant; 0=no damage to plant), and the result are shown below in table B1 to B18.

[2] = system: Digitaria sanguinalis (DIGSA); settings: 14 days, Table B1
Description: as §1

[3] = system: Eleusine indica (ELEIN); settings: 14 days, Table B17
Description: as §1

[4] = system: Amaranthus retroflexus (AMARE); settings: 14 days
Description: as §1

[5] = system: Ipomoea hederacea (IPOHE); settings: 14 days
Description: as §1

[6] = system: Chenopodium album (CHEAL); settings: 14 days, Table B6
Description: as §1

[7] = system: Sorghum bicolor (SORVU); settings: 14 days, Table B10
Description: as §1

[8] = system: Setaria faberi (SETFA); settings: 14 days, Table B3
Description: as §1

[9] = system: Stellaria media (STEME); settings: 14 days
Description: as §1

[10] = system: Euphorbia heterophylla (EPHHL); settings: 14 days, Table B11
Description: as §1

[11] = system: Abutilon theophrasti (ABUTH); settings: 14 days, Table B7
Description: as §1

[12] = system: Fallopia convolvulus (POLCO); settings: 14 days
Description: as §1

[13] = system: Phalaris minor (PHAMI); settings: 14 days, Table B9
Description: as §1

[14] = Compound (Ia) 0.9375 g/Ha alone
[15] = Compound (Ia) 0.46875 g/Ha alone

CCOC(=O)C1(C)CC(c2cc(-n3c(=O)cc(C(F)(F)F)n(C)c3=O)c(F)cc2Cl)=NO1 (stereo not drawn) [Compound (Ia)]
Observed Activity ([1]; Compound (Ia) 3.75 g/Ha alone, Table B2): 52.5%
Observed Activity ([1]; Compound (Ia) 3.75 g/Ha alone, Table B13): 31.3%
Observed Activity ([1]; Compound (Ia) 7.5 g/Ha alone, Table B2): 68.8%
Observed Activity ([1]; Compound (Ia) 7.5 g/Ha alone, Table B13): 47.5%
Observed Activity [2, 14]: 23.8%
Observed Activity [3, 15]: 37.5%
Observed Activity ([3]; Compound (Ia) 7.5 g/Ha alone): 89.8%
Observed Activity ([4]; Compound (Ia) 0.9375 g/Ha alone, Table B5): 51.3%
Observed Activity ([4]; Compound (Ia) 0.9375 g/Ha alone, Table B15): 51.3%
Observed Activity ([4]; Compound (Ia) 1.875 g/Ha alone, Table B5): 73.8%
Observed Activity ([5]; Compound (Ia) 0.46875 g/Ha alone, Table B8): 53.8%
Observed Activity ([5]; Compound (Ia) 0.46875 g/Ha alone, Table B16): 53.8%
Observed Activity ([5]; Compound (Ia) 1.875 g/Ha alone, Table B8): 83.8%
Observed Activity ([5]; Compound (Ia) 1.875 g/Ha alone, Table B16): 83.8%
Observed Activity ([6]; Compound (Ia) 1.875 g/Ha alone): 77.5%
Observed Activity ([7]; Compound (Ia) 7.5 g/Ha alone): 72.3%
Observed Activity ([8]; Compound (Ia) 3.75 g/Ha alone): 73.8%
Observed Activity ([9]; Compound (Ia) 0.9375 g/Ha alone, Table B4): 27.5%
Observed Activity ([9]; Compound (Ia) 1.875 g/Ha alone, Table B4): 43.8%
Observed Activity ([9]; Compound (Ia) 7.5 g/Ha alone, Table B14): 67.5%
Observed Activity [10, 14]: 33.3%
Observed Activity ([10]; Compound (Ia) 1.875 g/Ha alone): 45.3%
Observed Activity [11, 15]: 25.0%
Observed Activity [11, 14]: 67.5%
Observed Activity ([11]; Compound (Ia) 1.875 g/Ha alone): 88.8%
Observed Activity ([12]; Compound (Ia) 0.9375 g/Ha alone, Table B18): 82.0%
Observed Activity ([12]; Compound (Ia) 1.875 g/Ha alone, Table B12): 79.8%
Observed Activity ([12]; Compound (Ia) 1.875 g/Ha alone, Table B18): 79.8%
Observed Activity [13, 15]: 7.5%
Observed Activity [13, 14]: 11.3%
Observed Activity ([13]; Compound (Ia) 1.875 g/Ha alone): 25.8%
Observed Activity ([13]; Compound (Ia) 3.75 g/Ha alone): 57.0%
Observed Activity ([13]; Compound (Ia) 7.5 g/Ha alone): 72.8%

CP(=O)(O)CCC(N)C(=O)O (stereo not drawn) [Glufosinate, glufosinate]
Observed Activity ([1]; Glufosinate 30 g/Ha alone, Table B2): 47.5%
Observed Activity ([1]; Glufosinate 60 g/Ha alone, Table B2): 67.5%
Observed Activity ([1]; Glufosinate 120 g/Ha alone, Table B2): 91.5%
Observed Activity ([2]; Glufosinate 7.5 g/Ha alone): 5.0%
Observed Activity ([4]; Glufosinate 7.5 g/Ha alone, Table B5): 0.0%
Observed Activity ([4]; Glufosinate 15 g/Ha alone, Table B5): 0.0%
Observed Activity ([4]; Glufosinate 30 g/Ha alone, Table B5): 2.5%
Observed Activity ([5]; Glufosinate 7.5 g/Ha alone, Table B8): 2.5%
Observed Activity ([5]; Glufosinate 30 g/Ha alone, Table B8): 7.5%
Observed Activity ([6]; Glufosinate 15 g/Ha alone): 0.0%
Observed Activity ([7]; Glufosinate 30 g/Ha alone): 24.0%
Observed Activity ([8]; Glufosinate 30 g/Ha alone): 15.0%
Observed Activity ([9]; Glufosinate 7.5 g/Ha alone, Table B4): 0.0%
Observed Activity ([9]; Glufosinate 30 g/Ha alone, Table B4): 2.5%
Observed Activity ([10]; Glufosinate 3.75 g/Ha alone): 12.5%
Observed Activity ([10]; Glufosinate 7.5 g/Ha alone): 12.5%
Observed Activity ([11]; Glufosinate 7.5 g/Ha alone): 7.5%
Observed Activity ([11]; Glufosinate 15 g/Ha alone): 10.0%
Observed Activity ([12]; Glufosinate 7.5 g/Ha alone, Table B12): 7.5%
Observed Activity ([13]; Glufosinate 1.875 g/Ha alone): 2.5%
Observed Activity ([13]; Glufosinate 3.75 g/Ha alone): 5.0%
Observed Activity ([13]; Glufosinate 7.5 g/Ha alone): 12.5%
Observed Activity ([13]; Glufosinate 15 g/Ha alone): 7.5%
Observed Activity ([13]; Glufosinate 30 g/Ha alone): 12.5%

CP(=O)(O)CC[C@H](N)C(=O)O [L-Glufosinate, L-glufosinate]
Observed Activity ([1]; L-Glufosinate 30 g/Ha alone, Table B13): 5.0%
Observed Activity ([1]; L-Glufosinate 60 g/Ha alone, Table B13): 22.5%
Observed Activity ([1]; L-Glufosinate 120 g/Ha alone, Table B13): 32.5%
Observed Activity ([3]; L-Glufosinate 1.875 g/Ha alone): 0.0%
Observed Activity ([3]; L-Glufosinate 30 g/Ha alone): 20.0%
Observed Activity ([4]; L-Glufosinate 7.5 g/Ha alone, Table B15): 5.0%
Observed Activity ([4]; L-Glufosinate 15 g/Ha alone, Table B15): 7.5%
Observed Activity ([5]; L-Glufosinate 7.5 g/Ha alone, Table B16): 5.0%
Observed Activity ([5]; L-Glufosinate 15 g/Ha alone, Table B16): 15.0%
Observed Activity ([9]; L-Glufosinate 120 g/Ha alone, Table B14): 32.5%
Observed Activity ([12]; L-Glufosinate 3.75 g/Ha alone, Table B18): 10.0%
Observed Activity ([12]; L-Glufosinate 7.5 g/Ha alone, Table B18): 25.0%
